Assay results from patent US20170275287A1, “NOVEL N2, N4, N7, 6-TETRASUBSTITUTED PTERIDINE-2,4,7-TRIAMINE AND 2, 4, 6, 7-TETRASUBSTITUTED PTERIDINE COMPOUNDS AND METHODS OF SYNTHESIS AND USE THEREOF” (Janus Biotherapeutics, Inc., priority 2014, published 2017).
Where two headings read alike, the source gives them in different places.

Legend:
[1] = LogD, pH 7.4; type: physicochemical
[2] = A-B permeability, CaCo-2 cells (CEREP); type: in vitro ADME; conditions: human, pH 6.5/7.4
Procedure: Preliminary screening measures were conducted by CEREP. All values fall within acceptable limits (Table 5). Solubility assays where performed by CEREP, Seattle, Wash., according to Lipinski, C. A. et al., 1997, Adv. Drug Del. Rev., 46:3-26. Protein binding assays where performed by CEREP, Seattle, Wash., according to Banker, M. J. et al., 2003, J. Pharm. Sci., 92:967-974. Permeability assays where performed by CEREP, Seattle, Wash. according to Hildalgo, I. J., 1998, Gastroenterology, 96:736-749. Metabolic stability assays where performed by CEREP, Seattle, Wash., according to Obach, R. S. et al., 1997, J. Pharmacol. Exp. Ther., 283:46-58. P-glycoprotein inhibition assays where performed by CEREP, Seattle, Wash., according to Polli, J. W. et al., 2001, J. Pharm. Exp. Ther., 299:620-628. Cell viability assays where performed by CEREP, Seattle, Wash., according to Mosmann, T., 1983, J. Immunol. Met. 65:55-62. hERG automated patch clamp assays where performed by CEREP, Seattle, Wash., according to Mathes, C., 2006, Expert Opin. Ther. Targets, 10:230-241.

[3] = target: T1, TLR9 (Rattus norvegicus, UniProt Q6Y1S0); test: PK/PD study: serum cytokines after ODN CpG 1668 challenge; type: in vivo, Sprague-Dawley rats
T1 construct: endogenous in cells; host or cells: live Sprague-Dawley rats
T1 sequence (Q6Y1S0 24-1032): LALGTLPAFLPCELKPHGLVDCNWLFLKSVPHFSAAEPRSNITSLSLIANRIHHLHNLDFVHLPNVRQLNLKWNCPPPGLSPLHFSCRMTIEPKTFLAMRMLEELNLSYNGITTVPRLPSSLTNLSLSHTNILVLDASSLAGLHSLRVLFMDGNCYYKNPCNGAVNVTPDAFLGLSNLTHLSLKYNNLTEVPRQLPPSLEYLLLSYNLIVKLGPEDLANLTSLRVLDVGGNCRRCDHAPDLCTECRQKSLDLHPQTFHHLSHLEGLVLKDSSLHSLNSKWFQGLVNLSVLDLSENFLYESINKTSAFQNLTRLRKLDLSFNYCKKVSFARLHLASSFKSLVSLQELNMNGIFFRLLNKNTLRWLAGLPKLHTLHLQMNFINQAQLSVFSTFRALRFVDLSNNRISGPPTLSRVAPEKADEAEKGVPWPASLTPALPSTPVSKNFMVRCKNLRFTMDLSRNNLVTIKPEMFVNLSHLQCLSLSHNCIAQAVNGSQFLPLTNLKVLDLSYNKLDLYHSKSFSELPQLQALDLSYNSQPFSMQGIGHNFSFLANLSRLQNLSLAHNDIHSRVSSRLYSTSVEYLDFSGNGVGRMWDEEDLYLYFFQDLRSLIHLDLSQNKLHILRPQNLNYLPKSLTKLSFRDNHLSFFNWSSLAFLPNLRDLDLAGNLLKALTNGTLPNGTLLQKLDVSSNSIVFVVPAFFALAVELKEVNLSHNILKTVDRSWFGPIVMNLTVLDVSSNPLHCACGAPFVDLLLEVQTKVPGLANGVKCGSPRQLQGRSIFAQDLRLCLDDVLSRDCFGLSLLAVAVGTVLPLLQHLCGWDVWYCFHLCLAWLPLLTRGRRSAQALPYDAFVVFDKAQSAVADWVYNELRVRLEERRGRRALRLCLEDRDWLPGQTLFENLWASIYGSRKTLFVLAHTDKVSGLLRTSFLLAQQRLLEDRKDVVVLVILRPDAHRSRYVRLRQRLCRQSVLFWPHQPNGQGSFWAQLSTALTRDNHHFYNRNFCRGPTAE
Procedure: The objective of this study was to collect serum following ODN CpG 1668 administration and to determine the pharmacokinetics of JB6121 following oral administration to Sprague-Dawley rats for 7 days. There was a pre-test to establish the appropriate agonist dose for a TLR9 ligand, CpG DNA ODN 1668, in rats using serum IL-12 as the monitored cytokine, groups 1-3, see table 6. Whole blood samples for serum were collected terminally from each animal 3 hours following dosing with ODN CpG 1668. Serum IL-12 was determined by ELISA, data not shown. An agonist dose of lmg/kg was selected for the next phase of the study. For groups administered JB6121 (Groups 4-7), formulations were corrected for base/salt components and not corrected for purity. On the initial day of dose administration, JB6121 formulations were prepared using sterile PBS to the adjusted target dosing concentrations using a factor of 0.8265 to correct for salt content. Dosing was performed as outlined in the following Table 9.
Animals were assigned to four groups (groups 4-7) and administered JB6121 at 0.39, 1.56, 6.25, or 25 mg/kg in a volume of […] once per day by oral gavage for 7 days. On Day 7, two hours following the JB6121 dose (approximate Cmax), ODN CpG 1668 was administered as a single IP dose at 1 mg/kg in a volume of 1 mL/kg. Whole blood samples for bioanalysis and serum samples for serum cytokine analysis were collected by tail vein bleeding or terminally by cardiac puncture at t=2, 3, 4 and 5 h.
Serum IL-12 was monitored at three hours post agonist challenge as a measure of pharmacodynamic JB6121 activity, see FIG. 4. The apparent ID50 post 7-day exposure is approximately 11 ng*h/ml AUC or roughly 0.5 mg/kg dose. […] This would lead to a fourfold greater, 0.5 mg/kg versus 2.4 mg/kg, expected activity in the 7-day rat versus the 1-day mouse. […] We also used multiplex analysis to measure additional cytokines and chemokines in the serum samples. The measurements delivered results for MIP-1a, MIP-2, MCP-1 and IP-10.

[4] = 7-day non-GLP tox study, once daily oral gavage; type: in vivo, rats; conditions: for no-observed-effect level (NOEL): rats, 7 days oral
Procedure: A 7-day non-GLP tox study was performed in rats. Dosing was once daily by oral gavage. There were four dose groups; 0, 10, 30 and 100 mg/kg. The following parameters and end points were evaluated in this study: clinical signs, body weights, body weight changes, food consumption, clinical pathology parameters (hematology, coagulation, clinical chemistry, and urinalysis), toxicokinetic parameters, gross necropsy findings, organ weights, and histopathologic examinations.

CN1CCN(c2nc(NCCN3CCOCC3)c3nc(Cl)c(NCCN4CCOCC4)nc3n2)CC1 [JB6121, 6-chloro-2-(4-methylpiperazin-1-yl)-N^4,N^7-bis(2-morpholinoethyl)pteridine-4,7-diamine]
logD [1]: 0.995
Papp A→B [2]: 1.2 ×10⁻⁶ cm/s
ED50 ([3]; rat, po, serum IL-12, 3 h post agonist challenge, read-out: apparent ID50 post 7-day exposure, as dose): ~0.5 mg/kg
inhibition at 1.56 mg/kg ([3]; rat, 1.56 mg/kg dose, PO daily x7 days): > 80%
ED50 ([3]; rat, serum IP-10, read-out: ID50, IP-10 (multiplex analysis)): ~2.8 mg/kg
apparent ID50 post 7-day exposure, as AUC ([3]; serum IL-12, 3 h post agonist challenge): approximately 11 ng*h/ml
NOAEL at 7 days ([4]; both sexes, rat, in vivo, po): 100 mg/kg/day
hematopoiesis (spleen) ([4]; rat, in vivo, 30 mg/kg/day): increased incidence of hematopoiesis
increase of mean spleen weights ([4]; rat, in vivo, 30 mg/kg/day): at least 10%
hematopoiesis in the liver ([4]; rat, in vivo, 100 mg/kg/day): slight increase in hematopoiesis
no-observed-effect level (NOEL) ([4]; females): 100 mg/kg/day
no-observed-effect level (NOEL) ([4]; males): 10 mg/kg/day
